Results from patent US8426424B2, “Certain substituted amides, method of making, and method of use thereof” (CGI Pharmaceuticals, Inc., priority 2008, dated 2013).

Structure (SMILES): Cc1c(NC(=O)c2cc3c(s2)C2CCC3C2)cccc1-c1cn(C)c(=O)c(Nc2ccc(C3C(=O)N(C)CCN3C)cc2)n1 (stereo not shown) [1q, N-(3-(6-(4-(1,4-Dimethyl-3-oxopiperazin-2-yl)phenylamino)-4-methyl-5-oxo-4,5-dihydropyrazin-2-yl)-2-methylphenyl)-4,5,6,7-tetrahydro-4,7-methanobenzo[b]thiophene-2-carboxamide]
- melting point: 178 to 179 °C
